The text below walks through data of US7632645B1, “EGF receptor transactivation by G-protein-coupled receptors requires metalloproteinase cleavage of proHB-EGF” (Max-Planck-Gesellschaft zur forderung der Wissenschaften …, priority 1999, dated 2009).

One assay deals with SHC. Description: SHC tyrosine phosphorylation in Rat-1/EP-R cells. Particulars: tyrphostin pretreatment (AG1478 250 nM, AG1295 1 μM), FIG. 1e. It is filed as cell-based.
Assay [1] has as its system proHB-EGF. In words: Flow cytometry of cell surface proHB-EGF in non-transfected COS-7 cells. Format: cell-based. Particulars: within 10 minutes, FIG. 4c. (In general: In flow cytometry, cells or beads pass a laser one at a time.)
The test system of another assay is EGFR. Description: EGFR tyrosine phosphorylation in PC-3 prostate carcinoma cells. It is filed as cell-based, human. Particulars: PC-3 cells starved for 36 hours; 3 minutes stimulation; FIG. 4f.
The next assay relates to human EGFR (HERc). In words: Intercellular transactivation: HERc tyrosine phosphorylation in Rat-1/M1R + Rat-1/HERc co-culture. It is filed as cell-based. Particulars: carbachol 1 mM; for effect on EGFR (HERc) tyrosine phosphorylation in response to M1R agonist carbachol: confluent co-cultures of Rat-1/M1R and Rat-1/HERc cells, preincubation, FIG. 2b, 2c.
The test system of assay [2] is proHB-EGF. It is filed as cell-based.

With `Cc1cc2ncc(-c3ccccc3)nc2cc1C` [AG1295], the “effect on SHC tyrosine phosphorylation following thrombin stimulation” value with SHC is listed as “remained unaffected”. As to `COc1cc2ncnc(Nc3cccc(Cl)c3)c2cc1OC` [AG1478], in the assay on SHC, the “effect on SHC tyrosine phosphorylation following thrombin stimulation” value was “completely blocked”. In the case of `CCCCCCCCCCCCCC(=O)O[C@@H]1[C@@H](C)[C@@]2(O)[C@@H](C=C(CO)C[C@]3(O)C(=O)C(C)=C[C@@H]23)[C@@H]2C(C)(C)[C@]12OC(C)=O` [TPA, tetradecanoyl-phorbol-13-acetate], the “content of cell surface proHB-EGF after addition of agonist” value (“content of cell surface proHB-EGF” for short) with proHB-EGF [1] is on record as “reduced”. Moreover, the “induction of tyrosine phosphorylation of the EGFR by agonist” value in the assay on EGFR was “induce tyrosine phosphorylation”. In the case of `C[N+](C)(C)CCOC(N)=O` [carbachol], in the assay with human EGFR (HERc) (Rat-1/M1R + Rat-1/HERc co-culture, FIG. 2a), the “induction of tyrosine phosphorylation of HERc by agonist” value is listed as “rapidly induced tyrosine phosphorylation”. In the assay on proHB-EGF [2], the “proteolytic processing of membrane-anchored proHB-EGF upon agonist stimulation” value was “rapid breakdown”. For the compound `[O-][Cl+2]([O-])O` [chlorate], the “effect on EGFR (HERc) tyrosine phosphorylation in response to M1R agonist carbachol” value with human EGFR (HERc) is reported as “completely inhibited”. As for “EGF: epidermal growth factor, EGFR ligand used as control stimulus (NSDSECPLSHDGYCLHDGVCMYIEALDKYACNCVVGYIGERCQYRDLKWWELR; UniProt P01133 971-1023, looked up)”, the “content of cell surface proHB-EGF” value in the assay on proHB-EGF [1] is on record as “no effect”. Moreover, in the assay with EGFR, the “induction of tyrosine phosphorylation of the EGFR by agonist” value is listed as “induce tyrosine phosphorylation”.

With heparitinase, in the assay on human EGFR (HERc), the “effect on EGFR (HERc) tyrosine phosphorylation in response to M1R agonist carbachol” value is reported as “completely inhibited”. In the case of lysophosphatidic acid [LPA], in the assay on proHB-EGF [1], the “content of cell surface proHB-EGF” value is reported as “reduced”.
